Test systems include HCT-15; HOP-62; HT-29; K562; M19-MEL; Malme-3M; NCI-H226; NCI-H460; SF-539; SK-MEL-28; SK-MEL-2; SK-MEL-5; SNB-19; TK-10; UACC-62; DU-145; HOP-92; MCF7; RPMI-8226; SNB-75.
Holding throughout (assay): inhibition of tumour cell growth, NCI panel, 48 h

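Cells were grown in 96-well plates and exposed to each compound for 48 hours at five concentrations; endpoints were interpolated linearly between bracketing concentrations, or set to the highest concentration if not reached. GI50 is the concentration that inhibits growth by half.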 Calls of active or inactive are those of the source. No stated cut-off is given here; in the data, active = GI50 up to about 1.1 µM and inactive = higher.

With `Cc1ccccc1-n1c(C)nc2c1C(=O)c1ccccc1C2=O`, the GI50 in the assay with HCT-15 was 34.8 µM; in the assay with HOP-62, > 100 µM (inactive); in the assay on HT-29, 37.2 µM (inactive); in the assay with K562 it was 37.7 µM (inactive); with M19-MEL it was 22.8 µM (inactive); with Malme-3M, 15.3 µM (inactive). Besides, the GI50 was 48.3 µM (inactive) in the assay with NCI-H226; 36.1 µM (inactive) with NCI-H460; 28.2 µM (inactive) in the assay with SF-539; > 100 µM (inactive) in the assay with SK-MEL-28; > 100 µM (inactive) in the assay with SK-MEL-2; 22.1 µM (inactive) in the assay on SK-MEL-5. The GI50 in the assay with SNB-19 was 55.5 µM (inactive); in the assay with TK-10 it was > 100 µM (inactive); in the assay with UACC-62, 47.1 µM (inactive).

On to `CC(=O)O[C@H]1CC[C@@]2(C)C(=CC[C@H]3[C@@H]4C[C@H](N5CCOCC5)[C@H](OC(C)=O)[C@@]4(C)CC[C@@H]32)C1`, for which the GI50 with DU-145 is > 100 µM (inactive); with HCT-15, greater than 100 µM; in the assay with HOP-62, > 100 µM (inactive); in the assay on HOP-92, > 100 µM (inactive); with HT-29, 32.4 µM (inactive); with K562 it was 25.4 µM (inactive). Besides, the GI50 in the assay on MCF7 was > 100 µM (inactive); in the assay with Malme-3M it was > 100 µM (inactive); in the assay on NCI-H226 it was > 100 µM (inactive); with NCI-H460 it was > 100 µM (inactive); in the assay on RPMI-8226 it was 92.5 µM (inactive); in the assay with SF-539 it was 78 µM (inactive). For the same molecule, the GI50 with SK-MEL-28 is > 100 µM (inactive); in the assay on SK-MEL-2 it was > 100 µM (inactive); in the assay on SK-MEL-5, > 100 µM (inactive); with SNB-19, > 100 µM (inactive); with SNB-75, 71.6 µM (inactive); in the assay with TK-10 it was > 100 µM (inactive). Also, in the assay with UACC-62, the GI50 is > 100 µM (inactive).

Regarding `NC(=O)CC1(O)C=CC(=O)C=C1`, the GI50 in the assay on DU-145 was > 100 µM (inactive); in the assay with HCT-15 it was greater than 100 µM; with HOP-62, > 100 µM (inactive); with HOP-92, > 100 µM (inactive); in the assay on HT-29, > 100 µM (inactive); with K562, > 100 µM (inactive). The GI50 with MCF7, in the assay with Malme-3M, with NCI-H226, in the assay with NCI-H460, in the assay on RPMI-8226 and in the assay on SF-539 was > 100 µM (inactive) each time. The GI50 in the assay on SK-MEL-28, in the assay on SK-MEL-2, in the assay with SK-MEL-5, in the assay with SNB-19, in the assay with SNB-75 and in the assay on TK-10 was > 100 µM (inactive) throughout. Also, the GI50 in the assay on UACC-62 is > 100 µM (inactive).

Take `COc1cccc(/C=C/c2ccnc3ccccc23)c1OC`: the GI50 was > 10 µM (inactive) in the assay with DU-145; greater than 10 µM in the assay with HCT-15; > 10 µM (inactive) in the assay with HOP-62; 1.08 µM (active) in the assay with HOP-92; 9.86 µM (inactive) with HT-29; 4.7 µM (inactive) with K562. In addition, the GI50 is > 10 µM (inactive) in the assay on MCF7; > 10 µM (inactive) with Malme-3M; > 10 µM (inactive) with NCI-H226; > 10 µM (inactive) in the assay with NCI-H460; 2.27 µM (inactive) in the assay on RPMI-8226; > 10 µM (inactive) in the assay with SF-539. The GI50 in the assay with SK-MEL-28 is > 10 µM (inactive); in the assay on SK-MEL-2 it was > 10 µM (inactive); in the assay with SK-MEL-5, 6.89 µM (inactive); in the assay with SNB-19, > 10 µM (inactive); with SNB-75, > 10 µM (inactive); with TK-10 it was > 10 µM (inactive). Further, in the assay with UACC-62, the GI50 is > 10 µM (inactive).

Regarding `CN(C)c1ccc(/C=C2\C[C@H]3[C@@H]4CCc5cc(OCCN6CCCC6)ccc5[C@H]4CC[C@]3(C)[C@H]2O)cc1`, the GI50 was 13.1 µM (inactive) in the assay on DU-145; 5.3 µM in the assay on HCT-15; 15.1 µM (inactive) in the assay on HOP-62; 6.07 µM (inactive) in the assay on HOP-92; 3.57 µM (inactive) in the assay on HT-29; 4.74 µM (inactive) with K562. The GI50 in the assay on MCF7 is 7.35 µM (inactive); in the assay on Malme-3M it was 11.5 µM (inactive); with NCI-H226, 18.7 µM (inactive); in the assay with NCI-H460, 8.07 µM (inactive); with RPMI-8226, 8.28 µM (inactive); with SF-539, 8.32 µM (inactive). In addition, the GI50 in the assay on SK-MEL-28 was 5.11 µM (inactive); in the assay with SK-MEL-2, 19.3 µM (inactive); with SK-MEL-5, 9.66 µM (inactive); in the assay on SNB-19, 18.7 µM (inactive); in the assay with SNB-75 it was 13.8 µM (inactive); in the assay on TK-10, 5.5 µM (inactive). For the same molecule, the GI50 in the assay on UACC-62 is 20 µM (inactive).

As for `CC(C)OC(=O)c1ccc(NCC2=CC(=O)C=CC2=O)cc1`, the GI50 with DU-145 was 16.6 µM (inactive); in the assay on HCT-15, 12.7 µM; in the assay on HOP-62 it was > 95.5 µM (inactive); in the assay with HOP-92 it was 2.48 µM (inactive); in the assay with HT-29 it was 16.4 µM (inactive); with K562 it was 2.35 µM (inactive). Besides, the GI50 in the assay on MCF7 is 12.4 µM (inactive); with Malme-3M, 8.97 µM (inactive); in the assay with NCI-H226 it was 30 µM (inactive); in the assay with NCI-H460, 36.3 µM (inactive); in the assay with RPMI-8226, 2.54 µM (inactive); in the assay with SF-539, 7.45 µM (inactive). The GI50 was 18.3 µM (inactive) with SK-MEL-28; 17 µM (inactive) in the assay on SK-MEL-2; 17.4 µM (inactive) in the assay with SK-MEL-5; 29.4 µM (inactive) with SNB-19; 18.5 µM (inactive) in the assay with SNB-75; 15.3 µM (inactive) in the assay with TK-10. Further, the GI50 with UACC-62 was 15.3 µM (inactive).

With `Cc1cccc2c(NCCN(C)C)c3cccc(C(=O)NCCN(C)C)c3nc12`, the GI50 is 0.471 µM (active) with DU-145; 0.14 µM with HCT-15; 0.258 µM (active) in the assay with HOP-62; 0.218 µM (active) in the assay with HOP-92; 0.0594 µM (active) with HT-29; 0.0278 µM (active) in the assay on K562. Moreover, the GI50 is 0.0656 µM (active) in the assay on MCF7; 0.508 µM (active) in the assay on Malme-3M; 0.728 µM (active) in the assay on NCI-H226; < 0.0361 µM (active) with NCI-H460; 0.0838 µM (active) in the assay on RPMI-8226; 0.0649 µM (active) in the assay on SF-539. The GI50 with SK-MEL-28 is 0.199 µM (active); in the assay with SK-MEL-2 it was 0.54 µM (active); in the assay with SK-MEL-5 it was 0.157 µM (active); with SNB-19, 0.413 µM (active); in the assay on SNB-75, 0.357 µM (active); with TK-10, 0.445 µM (active). In addition, the GI50 in the assay on UACC-62 was 0.135 µM (active).

For the molecule `COc1ccc(OC)c2c1C(=O)C1CC1(Br)C2=O` (centres undefined), the GI50 is greater than 100 µM in the assay with HCT-15; > 100 µM (inactive) in the assay on HOP-62; > 100 µM (inactive) in the assay on HT-29; > 100 µM (inactive) in the assay on K562; > 100 µM (inactive) with M19-MEL; > 100 µM (inactive) in the assay with Malme-3M. Also, the GI50 in the assay with NCI-H460, in the assay on RPMI-8226, with SF-539, in the assay on SK-MEL-28, with SK-MEL-2 and with SK-MEL-5 was > 100 µM (inactive) throughout. Besides, the GI50 in the assay with SNB-19, with TK-10 and with UACC-62 was > 100 µM (inactive) throughout.

Source of the values: ChEMBL document CHEMBL1201862, “PubChem BioAssay data set” (2004).
